According to ChEMBL document CHEMBL5291721, “A preclinical secondary pharmacology resource illuminates target-adverse drug reaction associations of marketed drugs” (Nat Commun, 2023):

How the values were obtained:
Acetylcholinesterase = Acetylcholinesterase (Homo sapiens, UniProt P22303); assay type: functional
[1] = biological target: T1, Alpha-2A adrenergic receptor (Homo sapiens, UniProt P08913)
T1 sequence (P08913 whole entry): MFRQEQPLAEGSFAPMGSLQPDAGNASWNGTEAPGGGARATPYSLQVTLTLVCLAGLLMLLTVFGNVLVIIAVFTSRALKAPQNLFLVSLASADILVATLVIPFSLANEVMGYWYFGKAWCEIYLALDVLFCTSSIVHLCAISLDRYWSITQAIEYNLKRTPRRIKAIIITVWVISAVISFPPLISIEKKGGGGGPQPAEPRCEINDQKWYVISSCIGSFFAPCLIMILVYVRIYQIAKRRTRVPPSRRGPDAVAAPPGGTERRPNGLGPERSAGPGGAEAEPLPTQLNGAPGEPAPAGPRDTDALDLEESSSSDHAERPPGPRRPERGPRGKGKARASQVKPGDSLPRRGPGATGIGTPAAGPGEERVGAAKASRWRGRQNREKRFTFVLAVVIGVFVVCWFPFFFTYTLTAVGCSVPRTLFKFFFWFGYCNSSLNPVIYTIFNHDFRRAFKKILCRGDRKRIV

[2] = biological target: T2, Muscarinic acetylcholine receptor M2 (Homo sapiens, UniProt P08172)
T2 sequence (P08172 whole entry): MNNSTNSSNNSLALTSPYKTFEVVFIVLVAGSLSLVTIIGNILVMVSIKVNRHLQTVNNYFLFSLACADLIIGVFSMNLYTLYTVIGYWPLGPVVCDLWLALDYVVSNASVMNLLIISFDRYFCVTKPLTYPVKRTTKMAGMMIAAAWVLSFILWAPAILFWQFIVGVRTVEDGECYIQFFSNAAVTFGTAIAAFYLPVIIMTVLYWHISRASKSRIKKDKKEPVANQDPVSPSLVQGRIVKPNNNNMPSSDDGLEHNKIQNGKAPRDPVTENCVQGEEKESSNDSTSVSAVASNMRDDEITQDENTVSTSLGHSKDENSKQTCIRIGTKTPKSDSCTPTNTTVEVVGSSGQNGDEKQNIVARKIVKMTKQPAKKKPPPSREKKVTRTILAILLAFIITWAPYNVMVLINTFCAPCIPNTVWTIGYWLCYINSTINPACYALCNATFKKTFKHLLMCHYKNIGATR

Prothrombin = Prothrombin (Homo sapiens, UniProt P00734); assay type: functional
Histamine H3 receptor = Histamine H3 receptor (Homo sapiens, UniProt Q9Y5N1)
[3] = biological target: T3, 5-hydroxytryptamine receptor 1A (Homo sapiens, UniProt P08908)
T3 sequence (P08908 whole entry): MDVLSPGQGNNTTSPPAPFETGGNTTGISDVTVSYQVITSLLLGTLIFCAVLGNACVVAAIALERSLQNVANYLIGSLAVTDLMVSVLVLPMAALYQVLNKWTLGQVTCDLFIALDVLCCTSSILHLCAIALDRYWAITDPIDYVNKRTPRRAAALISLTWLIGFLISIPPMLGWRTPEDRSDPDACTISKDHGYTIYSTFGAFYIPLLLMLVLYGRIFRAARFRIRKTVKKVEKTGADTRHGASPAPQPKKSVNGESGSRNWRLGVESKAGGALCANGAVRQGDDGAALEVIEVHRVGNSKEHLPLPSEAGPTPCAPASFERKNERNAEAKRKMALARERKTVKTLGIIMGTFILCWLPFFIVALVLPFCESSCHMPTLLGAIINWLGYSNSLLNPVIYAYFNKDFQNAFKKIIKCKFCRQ

[4] = biological target: 5-hydroxytryptamine receptor 2B (Homo sapiens, UniProt P41595); assay type: functional, cell-based
[5] = biological target: Voltage-gated inwardly rectifying potassium channel KCNH2 (Homo sapiens, UniProt Q12809); assay type: functional
[6] = biological target: T4, Amine oxidase [flavin-containing] A (Homo sapiens, UniProt P21397); assay type: functional
T4 sequence (P21397 whole entry): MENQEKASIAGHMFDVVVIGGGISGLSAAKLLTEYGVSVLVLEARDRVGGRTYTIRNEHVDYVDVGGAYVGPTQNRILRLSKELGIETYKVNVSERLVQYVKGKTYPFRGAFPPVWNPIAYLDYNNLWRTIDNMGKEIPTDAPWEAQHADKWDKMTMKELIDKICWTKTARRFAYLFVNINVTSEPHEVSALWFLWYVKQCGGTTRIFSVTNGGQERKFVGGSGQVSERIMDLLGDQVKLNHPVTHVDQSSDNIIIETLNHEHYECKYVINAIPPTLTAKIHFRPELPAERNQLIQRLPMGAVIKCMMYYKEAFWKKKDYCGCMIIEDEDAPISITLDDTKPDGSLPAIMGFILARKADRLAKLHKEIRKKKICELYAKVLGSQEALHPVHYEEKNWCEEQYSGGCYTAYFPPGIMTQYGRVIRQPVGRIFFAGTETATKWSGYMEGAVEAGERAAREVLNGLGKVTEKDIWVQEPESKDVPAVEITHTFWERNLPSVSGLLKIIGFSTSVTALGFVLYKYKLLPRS

[7] = biological target: cGMP-inhibited 3',5'-cyclic phosphodiesterase 3A (Homo sapiens, UniProt Q14432); assay type: functional
[8] = biological target: 3',5'-cyclic-AMP phosphodiesterase 4A (Homo sapiens, UniProt P27815); assay type: functional
[9] = biological target: Sodium-dependent dopamine transporter (Homo sapiens, UniProt Q01959)
Thromboxane A2 receptor [10] = biological target: T5, Thromboxane A2 receptor (Homo sapiens, UniProt P21731); assay type: functional, cell-based
T5 sequence (P21731 whole entry): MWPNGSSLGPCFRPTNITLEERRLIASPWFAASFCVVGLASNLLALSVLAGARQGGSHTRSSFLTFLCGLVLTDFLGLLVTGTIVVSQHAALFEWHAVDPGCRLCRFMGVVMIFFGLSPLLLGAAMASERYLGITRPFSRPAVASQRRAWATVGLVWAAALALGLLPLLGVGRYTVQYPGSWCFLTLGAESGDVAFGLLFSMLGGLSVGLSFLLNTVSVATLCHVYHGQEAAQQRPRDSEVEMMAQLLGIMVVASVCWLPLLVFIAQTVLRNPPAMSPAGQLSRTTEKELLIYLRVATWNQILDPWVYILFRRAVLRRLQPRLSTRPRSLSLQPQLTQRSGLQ

Thromboxane A2 receptor [11] = biological target: T5, Thromboxane A2 receptor; assay type: functional, cell-based; remark: listed apart in the source
Also: assay procedure not described here.

Sequence of Sodium-dependent dopamine transporter (Q01959 whole entry): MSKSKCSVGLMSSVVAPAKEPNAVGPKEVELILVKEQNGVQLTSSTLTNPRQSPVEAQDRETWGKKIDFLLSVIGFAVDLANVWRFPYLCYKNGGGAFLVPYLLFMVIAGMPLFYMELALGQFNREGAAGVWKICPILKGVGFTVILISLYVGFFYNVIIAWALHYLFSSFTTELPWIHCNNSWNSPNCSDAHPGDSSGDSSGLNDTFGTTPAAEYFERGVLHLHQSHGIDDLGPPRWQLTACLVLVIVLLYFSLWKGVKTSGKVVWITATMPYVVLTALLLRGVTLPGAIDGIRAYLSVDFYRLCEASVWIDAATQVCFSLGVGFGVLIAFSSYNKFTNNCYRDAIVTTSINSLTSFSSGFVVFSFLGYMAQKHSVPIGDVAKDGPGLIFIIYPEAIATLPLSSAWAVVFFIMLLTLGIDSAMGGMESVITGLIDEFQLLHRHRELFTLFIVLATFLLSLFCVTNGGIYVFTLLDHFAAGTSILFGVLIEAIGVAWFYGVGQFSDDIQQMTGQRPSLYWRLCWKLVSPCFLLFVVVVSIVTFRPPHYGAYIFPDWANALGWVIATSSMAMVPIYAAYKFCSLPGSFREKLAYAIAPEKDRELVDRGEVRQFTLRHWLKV
Sequence of Histamine H3 receptor (Q9Y5N1 whole entry): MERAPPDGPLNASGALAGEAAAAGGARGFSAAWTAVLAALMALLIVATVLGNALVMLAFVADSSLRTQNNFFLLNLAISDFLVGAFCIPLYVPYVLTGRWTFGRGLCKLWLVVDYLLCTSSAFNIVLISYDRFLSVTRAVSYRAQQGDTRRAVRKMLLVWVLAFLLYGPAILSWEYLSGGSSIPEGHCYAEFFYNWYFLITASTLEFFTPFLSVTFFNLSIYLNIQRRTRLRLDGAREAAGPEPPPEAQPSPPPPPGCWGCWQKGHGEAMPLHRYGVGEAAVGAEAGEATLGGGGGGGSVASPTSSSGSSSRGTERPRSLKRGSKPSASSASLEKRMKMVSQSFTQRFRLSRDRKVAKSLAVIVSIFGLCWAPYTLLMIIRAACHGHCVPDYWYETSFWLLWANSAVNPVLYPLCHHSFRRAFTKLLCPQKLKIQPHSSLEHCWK
Sequence of cGMP-inhibited 3',5'-cyclic phosphodiesterase 3A (Q14432 whole entry): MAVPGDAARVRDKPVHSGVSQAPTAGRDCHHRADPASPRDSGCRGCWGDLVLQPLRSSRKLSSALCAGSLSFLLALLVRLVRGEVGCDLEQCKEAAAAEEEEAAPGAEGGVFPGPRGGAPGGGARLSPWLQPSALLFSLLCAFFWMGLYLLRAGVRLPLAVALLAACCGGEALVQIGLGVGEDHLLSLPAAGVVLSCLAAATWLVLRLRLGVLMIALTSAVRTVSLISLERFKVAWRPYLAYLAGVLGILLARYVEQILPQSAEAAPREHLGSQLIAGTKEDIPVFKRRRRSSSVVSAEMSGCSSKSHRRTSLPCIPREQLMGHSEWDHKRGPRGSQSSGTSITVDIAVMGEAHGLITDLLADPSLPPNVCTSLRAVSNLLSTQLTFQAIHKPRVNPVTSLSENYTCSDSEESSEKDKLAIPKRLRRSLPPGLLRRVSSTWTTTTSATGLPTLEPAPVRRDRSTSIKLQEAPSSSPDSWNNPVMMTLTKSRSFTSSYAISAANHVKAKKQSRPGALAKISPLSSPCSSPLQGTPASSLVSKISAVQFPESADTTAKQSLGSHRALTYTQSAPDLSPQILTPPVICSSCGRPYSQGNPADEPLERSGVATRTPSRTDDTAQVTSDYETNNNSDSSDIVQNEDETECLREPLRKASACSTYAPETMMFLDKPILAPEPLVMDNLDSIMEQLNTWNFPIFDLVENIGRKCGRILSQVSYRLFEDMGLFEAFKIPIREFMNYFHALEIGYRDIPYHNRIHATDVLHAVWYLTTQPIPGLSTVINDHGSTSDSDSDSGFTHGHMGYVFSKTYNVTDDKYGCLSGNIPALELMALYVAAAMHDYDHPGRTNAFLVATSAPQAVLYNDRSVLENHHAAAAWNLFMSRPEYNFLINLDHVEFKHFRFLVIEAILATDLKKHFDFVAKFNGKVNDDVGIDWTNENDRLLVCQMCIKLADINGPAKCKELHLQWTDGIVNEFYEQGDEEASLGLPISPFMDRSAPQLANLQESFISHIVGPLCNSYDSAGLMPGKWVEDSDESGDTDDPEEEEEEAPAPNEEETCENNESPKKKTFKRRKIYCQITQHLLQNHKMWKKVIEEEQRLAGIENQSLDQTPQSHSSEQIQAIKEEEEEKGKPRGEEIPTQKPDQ
Sequence of Voltage-gated inwardly rectifying potassium channel KCNH2 (Q12809 whole entry): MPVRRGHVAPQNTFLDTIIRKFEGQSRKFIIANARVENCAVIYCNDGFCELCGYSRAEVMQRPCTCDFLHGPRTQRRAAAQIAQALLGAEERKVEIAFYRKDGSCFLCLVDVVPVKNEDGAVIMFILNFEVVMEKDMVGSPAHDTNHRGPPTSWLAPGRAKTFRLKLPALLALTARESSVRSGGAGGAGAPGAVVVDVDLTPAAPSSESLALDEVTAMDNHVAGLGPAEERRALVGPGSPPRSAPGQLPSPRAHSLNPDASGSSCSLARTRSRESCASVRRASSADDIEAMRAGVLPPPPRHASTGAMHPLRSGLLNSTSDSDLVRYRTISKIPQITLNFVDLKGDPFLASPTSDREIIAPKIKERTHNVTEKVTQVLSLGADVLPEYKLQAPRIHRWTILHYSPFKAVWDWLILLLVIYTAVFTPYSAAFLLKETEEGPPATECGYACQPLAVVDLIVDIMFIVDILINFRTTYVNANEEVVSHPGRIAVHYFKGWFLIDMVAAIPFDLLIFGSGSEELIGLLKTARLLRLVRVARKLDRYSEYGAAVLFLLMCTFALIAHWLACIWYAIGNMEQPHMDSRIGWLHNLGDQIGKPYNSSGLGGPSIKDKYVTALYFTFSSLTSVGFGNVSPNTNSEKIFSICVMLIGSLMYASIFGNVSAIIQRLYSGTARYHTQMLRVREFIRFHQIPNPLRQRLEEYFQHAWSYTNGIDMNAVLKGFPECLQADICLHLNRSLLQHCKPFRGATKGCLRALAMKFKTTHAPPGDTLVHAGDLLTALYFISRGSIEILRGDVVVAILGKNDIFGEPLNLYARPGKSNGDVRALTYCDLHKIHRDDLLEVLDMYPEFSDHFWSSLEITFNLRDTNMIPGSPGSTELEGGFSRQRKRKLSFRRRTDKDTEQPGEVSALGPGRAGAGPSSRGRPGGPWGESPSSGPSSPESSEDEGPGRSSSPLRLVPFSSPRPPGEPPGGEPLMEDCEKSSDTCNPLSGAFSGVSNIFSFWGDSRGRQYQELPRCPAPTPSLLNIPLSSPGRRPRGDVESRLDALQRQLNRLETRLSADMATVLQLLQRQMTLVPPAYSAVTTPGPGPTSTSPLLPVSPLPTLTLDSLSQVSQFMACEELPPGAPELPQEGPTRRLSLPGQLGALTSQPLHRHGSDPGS
Sequence of 3',5'-cyclic-AMP phosphodiesterase 4A (P27815 whole entry): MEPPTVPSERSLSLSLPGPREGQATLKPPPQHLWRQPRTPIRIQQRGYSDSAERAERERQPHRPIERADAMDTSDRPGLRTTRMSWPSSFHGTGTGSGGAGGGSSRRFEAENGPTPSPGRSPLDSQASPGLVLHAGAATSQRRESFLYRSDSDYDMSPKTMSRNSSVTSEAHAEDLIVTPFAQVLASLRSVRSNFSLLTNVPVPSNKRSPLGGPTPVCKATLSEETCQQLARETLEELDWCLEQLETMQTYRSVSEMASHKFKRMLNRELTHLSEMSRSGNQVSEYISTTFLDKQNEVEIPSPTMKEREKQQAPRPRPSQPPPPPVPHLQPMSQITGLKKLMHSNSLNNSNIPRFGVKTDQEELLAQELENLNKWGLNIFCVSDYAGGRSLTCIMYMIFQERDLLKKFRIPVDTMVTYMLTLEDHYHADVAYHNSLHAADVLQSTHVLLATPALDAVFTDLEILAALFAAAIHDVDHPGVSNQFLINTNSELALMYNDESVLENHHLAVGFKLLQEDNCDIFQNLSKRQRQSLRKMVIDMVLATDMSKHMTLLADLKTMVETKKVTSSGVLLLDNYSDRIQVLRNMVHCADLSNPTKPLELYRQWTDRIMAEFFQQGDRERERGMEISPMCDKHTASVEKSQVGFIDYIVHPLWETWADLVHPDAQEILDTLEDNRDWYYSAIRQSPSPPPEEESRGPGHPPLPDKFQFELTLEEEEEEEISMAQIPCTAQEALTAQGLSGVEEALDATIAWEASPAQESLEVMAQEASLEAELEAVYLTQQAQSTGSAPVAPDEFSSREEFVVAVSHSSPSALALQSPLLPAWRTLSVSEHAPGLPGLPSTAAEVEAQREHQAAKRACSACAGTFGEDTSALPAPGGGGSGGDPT
Sequence of 5-hydroxytryptamine receptor 2B (P41595 whole entry): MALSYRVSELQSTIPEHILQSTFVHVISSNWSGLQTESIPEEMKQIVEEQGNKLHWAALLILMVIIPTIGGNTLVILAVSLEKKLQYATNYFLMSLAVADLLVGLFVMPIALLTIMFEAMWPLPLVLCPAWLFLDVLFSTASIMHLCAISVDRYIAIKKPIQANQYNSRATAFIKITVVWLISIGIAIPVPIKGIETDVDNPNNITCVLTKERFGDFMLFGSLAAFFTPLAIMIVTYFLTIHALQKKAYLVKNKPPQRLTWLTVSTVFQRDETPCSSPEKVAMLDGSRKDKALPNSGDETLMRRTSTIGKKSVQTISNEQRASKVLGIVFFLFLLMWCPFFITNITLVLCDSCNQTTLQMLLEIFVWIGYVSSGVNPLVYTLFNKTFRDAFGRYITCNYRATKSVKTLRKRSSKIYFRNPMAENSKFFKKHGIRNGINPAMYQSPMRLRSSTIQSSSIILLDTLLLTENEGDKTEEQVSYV

| SMILES | AC50 (Acetylcholinesterase) [µM] | AC50 [1] [µM] | AC50 [2] [µM] | AC50 (Prothrombin) [µM] | AC50 (Histamine H3 receptor) [µM] | AC50 [3] [µM] | AC50 [4] [µM] | AC50 [5] [µM] | AC50 [6] [µM] | AC50 [7] [µM] | AC50 [8] [µM] | AC50 [9] [µM] | AC50 (Thromboxane A2 receptor [10]) [µM] | AC50 (Thromboxane A2 receptor [11]) [µM] |
| --- | --- | --- | --- | --- | --- | --- | --- | --- | --- | --- | --- | --- | --- | --- |
| Cc1cc2c(cc1S(N)(=O)=O)S(=O)(=O)CCC2 | > 30 | > 30 | > 30 | > 30 | > 30 | > 30 | > 30 | > 30 | > 30 | > 30 | > 30 | > 30 | > 30 | > 30 |
| NC(=O)[C@@H]1CC[C@@H]2CN1C(=O)N2OS(=O)(=O)O [AVIBACTAM] | > 30 | > 30 | > 30 | > 30 | > 30 | > 30 | > 30 | > 30 | > 30 | > 30 | > 30 | > 30 | > 30 | > 30 |
| CC(O)(CS(=O)(=O)c1ccc(F)cc1)C(=O)Nc1ccc(C#N)c(C(F)(F)F)c1 (stereo not drawn) [BICALUTAMIDE] | > 30 | > 30 | > 30 | > 30 | > 30 | > 30 | > 30 | > 30 | > 30 | > 30 | > 30 | > 30 | > 10 | > 3 |
| CC(C)(C)NC(=O)N[C@H](C(=O)N1C[C@H]2[C@@H]([C@H]1C(=O)NC(CC1CCC1)C(=O)C(N)=O)C2(C)C)C(C)(C)C (stereo partly drawn) [BOCEPREVIR] | > 30 | > 30 | > 30 | > 30 | > 30 | > 30 | > 30 | > 30 | > 30 | > 30 | > 30 | > 30 | > 30 | > 30 |
| NC[C@H]1CC[C@H](C(=O)Oc2ccc(CCC(=O)O)cc2)CC1 [CETRAXATE] | > 30 | > 30 | > 30 | 4.35 | > 30 | > 30 | > 30 | > 30 | > 30 | > 30 | > 30 | > 30 | > 30 | > 30 |
| C=C1CC[C@H](O)C/C1=C/C=C1\CCC[C@]2(C)[C@@H]([C@H](C)CCCC(C)C)CC[C@@H]12 [CHOLECALCIFEROL] | > 30 | > 30 | > 30 | > 30 | > 30 | > 30 | > 30 | > 30 | > 30 | > 3 | > 30 | > 30 | > 30 | 22.4 |
| C[C@H](CCC(=O)O)[C@H]1CC[C@H]2[C@@H]3[C@H](O)C[C@@H]4C[C@H](O)CC[C@]4(C)[C@H]3C[C@H](O)[C@]12C [CHOLIC ACID] | > 30 | > 30 | > 30 | > 30 | > 30 | > 30 | > 30 | > 30 | > 30 | 13.8 | > 30 | > 30 | > 30 | > 30 |
| Cc1ncc2c(c1O)COC2c1ccc(Cl)cc1 (stereo not drawn) [CICLETANINE] | > 30 | > 30 | > 30 | > 30 | > 30 | > 30 | > 30 | > 30 | > 30 | > 30 | > 30 | > 30 | > 30 | > 30 |
| N#Cc1ccc(Oc2ccc3c(c2)COB3O)cc1 [CRISABOROLE] | > 30 | > 30 | > 30 | > 30 | > 30 | > 30 | > 30 | > 30 | > 30 | 14.7 | 0.337 | > 30 | > 30 | > 30 |
| CC(=O)O[C@]1(C(C)=O)CC[C@H]2[C@@H]3C=C(Cl)C4=CC(=O)[C@@H]5C[C@@H]5[C@]4(C)[C@H]3CC[C@@]21C [CYPROTERONE ACETATE] | > 30 | > 30 | 9.17 | > 30 | > 30 | > 30 | > 30 | > 30 | > 30 | > 30 | > 30 | > 30 | > 30 | > 3 |
| CC(=O)O[C@H]1Cc2ccccc2N(C(N)=O)c2ccccc21 [ESLICARBAZEPINE ACETATE] | > 30 | > 30 | > 30 | > 30 | > 30 | > 30 | > 30 | > 30 | > 30 | > 30 | > 30 | > 30 | > 30 | > 30 |
| C[C@@H]1C[C@H]2[C@@H]3C[C@H](F)C4=CC(=O)C=C[C@]4(C)[C@@]3(F)[C@@H](O)C[C@]2(C)[C@@]1(OC(=O)c1ccco1)C(=O)SCF [FLUTICASONE FUROATE] | > 30 | > 30 | > 30 | > 30 | > 30 | > 30 | > 30 | > 30 | > 30 | > 30 | > 30 | > 30 | > 30 | > 30 |
